# Legend:
# [1] = test system: Velvetleaf, Abutilon theophrasti; experiment: Postemergence herbicidal evaluation, ABUTH; type: in vivo, Medic.
# Method in brief: (§1)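 Visual 0–9 scoring against untreated control, made four to five weeks post-spray and averaged over repeat tests, covers stand, vigor, malformation, size and chlorosis. Treatment: foliar spray at 40 psi onto ~2-week seedlings, about 0.0157–0.500 kg/ha, compound in 1:1 acetone/water with 0.5% TWEEN 20.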
# [2] = test system: Ragweed, Common, Ambrosia artemisifolia; experiment: Postemergence herbicidal evaluation, AMBEL; type: in vivo, L.
# Method in brief: as §1
# Galium, Galium aparine = experiment: Postemergence herbicidal evaluation, GALAP; type: in vivo
# Method in brief: as §1
# [3] = test system: Morningglory Spp., Ipomoea Spp.; experiment: Postemergence herbicidal evaluation, IPOSS; type: in vivo; settings: 0.2500 kg/ha
# Protocol: In the tests, seedling plants are grown in jiffy flats for about two weeks. The test compounds are dispersed in 50/50 acetone/water mixtures containing 0.5% TWEEN®20, a polyoxyethylene sorbitan monolaurate surfactant of Atlas Chemical Industries, in sufficient quantities to provide the equivalent of about 0.0157 kg to 0.500 kg per hectare of active compound when applied to the plants through a spray nozzle operating at 40 psi for a predetermined time. After spraying, the plants are placed on greenhouse benches and are cared for in accordance with conventional greenhouse procedures. From four to five weeks after treatment, the seedling plants are examined and rated according to the rating system set forth below. Where more than one test is involved for a given compound, the data are averaged.
# (§2) Results of herbicide evaluation are expressed on a rating scale (0-9). The scale is based upon a visual observation of plant stand, vigor, malformation, size, chlorosis and overall plant appearance as compared with a control.
# [4] = test system: Barnyardgrass, Echinochloa crus-galli; experiment: Postemergence herbicidal evaluation, ECHCG; type: in vivo, (L.) Beau
# Method in brief: as §1
# Corn, Field, Zea mays [5] = experiment: Postemergence herbicidal evaluation, ZEAMX; type: in vivo, L.
# Method in brief: as §1
# [6] = test system: Velvetleaf, Abutilon theophrasti; experiment: Preemergence herbicidal evaluation, ABUTH; type: in vivo, Medic.; settings: 0.2500 kg/ha
# Text: as §2
# (§3) The preemergence herbicidal activity of the test compounds of the present invention is exemplified by the following tests in which the seeds of a variety of monocotyledonous and dicotyledonous plants are separately mixed with potting soil and planted on top of approximately one inch of soil in separate pint cups. After planting, the cups are sprayed with the selected aqueous acetone solution containing test compound in sufficient quantity to provide the equivalent of about 0.0156 to 0.500 kg per hectare of test compound per cup. The treated cups are then placed on greenhouse benches, watered and cared for in accordance with conventional greenhouse procedures. From four to five weeks after treatment, the tests are terminated and each cup is examined and rated according to the rating system provided in Example 185.
# (§4) The compounds evaluated are reported by compound number given in Example 185.
# [7] = test system: Barnyardgrass, Echinochloa crus-galli; experiment: Preemergence herbicidal evaluation, ECHCG; type: in vivo, (L.) Beau; settings: 0.2500 kg/ha
# Text: as §2, §3, §4
# [8] = test system: Foxtail, Green, Setaria viridis; experiment: Preemergence herbicidal evaluation, SETVI; type: in vivo, (L.) Beau; settings: 0.2500 kg/ha
# Text: as §2, §3, §4
# Corn, Field, Zea mays [9] = experiment: Preemergence herbicidal evaluation, ZEAMX; type: in vivo, L.; settings: 0.2500 kg/ha
# Text: as §2, §3, §4
# CYPIR Rice Flatsedge = experiment: Preemergence weed control, flooded paddy (Table III); type: in vivo, Cyperus iria; design: scale not given here
# Protocol: (§5) Preemergence herbicidal activity under flooded paddy conditions is determined as follows: plant seeds or propagating organs are planted in the top 0.5 cm of silt loam soil in 32 oz. plastic containers with a diameter of 10.5 cm and no drainage holes. Water is added to these containers and maintained at 1.5 to 3 cm above the soil surface for the duration of the experiment. The test compounds are applied as aqueous/acetone mixtures 50/50 v/v pipetted directly into the flood water to give the equivalent of about 0.0313 to 0.500 kg/ha of active ingredient. The treated containers are placed on greenhouse benches and cared for in accordance with conventional greenhouse procedures. Three to four weeks after treatment, the test is terminated and each container is examined and herbicidal effect rated according to the rating system provided in Example 185. The compounds evaluated are reported by compound number given in Example 185.
# CYPSE Flatsedge = experiment: as above; type: in vivo, Cyperus serotinus; design: scale not given here
# Protocol: as §5
# MOOVA Monochoria [10] = experiment: as above; type: in vivo, Monochoria vaginalis; design: scale not given here
# Protocol: as §5
# MOOVA Monochoria [11] = experiment: Postemergence weed control, flooded paddy (Table IV); type: in vivo, Monochoria vaginalis; design: scale not given here
# Text: (§6) Plastic containers containing weeds which are 3 to 5 cm tall and rice seedlings at the 1.5 to 2.5 leaf stage are flooded with water. The water is maintained at 1.5 to 3 cm above the soil surface for the duration of the experiment. Test compounds are applied as aqueous/acetone mixtures 50/50 v/v directly into the flood water to provide the equivalent of about 0.0313 to 0.500 kg/ha of active ingredient. The treated containers are placed on greenhouse benches and cared for in accordance with conventional greenhouse procedures. Three to four weeks after treatment, the test is terminated and each container is examined and herbicidal effect rated according to the rating system provided in Example 185. The compounds evaluated are reported by compound number given in Example 185.
# [12] = test system: SAGPY Arrowhead (Pygmaea); experiment: as above; type: in vivo, Sagittaria pygmaea; design: scale not given here
# Text: as §6
# ORYSAT Rice, Tebonnet = experiment: Rice tolerance, flooded paddy (Table IV); type: in vivo, Oryza sativa; design: scale not given here; settings: crop tolerance
# Text: as §6
Structure (SMILES),herbicide rating (0-9) ([1]; 0.2500 kg/ha),herbicide rating (0-9) ([2]; 0.2500 kg/ha),"herbicide rating (0-9) (Galium, Galium aparine; 0.2500 kg/ha)",herbicide rating (0-9) [3],herbicide rating (0-9) ([4]; 0.2500 kg/ha),"herbicide rating (0-9) (Corn, Field, Zea mays [5]; 0.2500 kg/ha)",herbicide rating (0-9) [6],herbicide rating (0-9) [7],herbicide rating (0-9) [8],"herbicide rating (0-9) (Corn, Field, Zea mays [9])",herbicidal effect rating (CYPIR Rice Flatsedge; 0.0625 kg/ha),herbicidal effect rating (CYPIR Rice Flatsedge; 0.1250 kg/ha),herbicidal effect rating (CYPIR Rice Flatsedge; 0.2500 kg/ha),herbicidal effect rating (CYPIR Rice Flatsedge; 0.5000 kg/ha),herbicidal effect rating (CYPSE Flatsedge; 0.0625 kg/ha),herbicidal effect rating (CYPSE Flatsedge; 0.1250 kg/ha),herbicidal effect rating (CYPSE Flatsedge; 0.2500 kg/ha),herbicidal effect rating (CYPSE Flatsedge; 0.5000 kg/ha),herbicidal effect rating (MOOVA Monochoria [10]; 0.0625 kg/ha),herbicidal effect rating (MOOVA Monochoria [10]; 0.1250 kg/ha),also measured
"Cc1cc(O)c(-c2nsc3ccc(-n4c(=O)cc(C(F)(F)F)n(C)c4=O)cc23)cc1C [Compound 11, 3-[3-(6-Hydroxy-3,4-xylyl)-1,2-benzisothiazol-5-yl]-1-methyl-6-(trifluoromethyl)-2,4(1H,3H)-pyrimidinedione]",9.0,9.0,6.0,9.0,7.0,5.5,9.0,0.0,9.0,5.0,9.0,9.0,9.0,9.0,2.0,2.0,2.0,7.0,9.0,9.0,"herbicidal effect rating (MOOVA Monochoria [10]; 0.2500 kg/ha): 9.0; herbicidal effect rating (MOOVA Monochoria [10]; 0.5000 kg/ha): 9.0; herbicidal effect rating (MOOVA Monochoria [11]; 0.1250 kg/ha): 9.0; herbicidal effect rating (MOOVA Monochoria [11]; 0.2500 kg/ha): 9.0; herbicidal effect rating (MOOVA Monochoria [11]; 0.5000 kg/ha): 9.0; herbicidal effect rating ([12]; 0.1250 kg/ha): 0.0; herbicidal effect rating ([12]; 0.2500 kg/ha): 4.0; herbicidal effect rating ([12]; 0.5000 kg/ha): 7.0; herbicidal effect rating (ORYSAT Rice, Tebonnet; 0.1250 kg/ha): 0.0; herbicidal effect rating (ORYSAT Rice, Tebonnet; 0.2500 kg/ha): 1.0; herbicidal effect rating (ORYSAT Rice, Tebonnet; 0.5000 kg/ha): 1.0"
"Cc1nsc2ccc(-n3c(=O)cc(C(F)(F)F)n(C)c3=O)cc12 [Compound 6, 1-Methyl-3-(3-methyl-1,2-benzisothiazol-5-yl)-6-(trifluoromethyl)-2,4(1H,3H)-pyrimidinedione]",9.0,9.0,9.0,9.0,6.0,3.5,9.0,9.0,9.0,9.0,9.0,9.0,9.0,9.0,4.0,7.0,9.0,9.0,9.0,9.0,"herbicide rating (0-9) ([1]; 0.0630 kg/ha): 9.0; herbicide rating (0-9) ([2]; 0.0630 kg/ha): 6.5; herbicide rating (0-9) (Galium, Galium aparine; 0.0630 kg/ha): 5.0; herbicide rating (0-9) ([4]; 0.0630 kg/ha): 1.5; herbicide rating (0-9) (Corn, Field, Zea mays [5]; 0.0630 kg/ha): 4.5; herbicidal effect rating (MOOVA Monochoria [10]; 0.2500 kg/ha): 9.0; herbicidal effect rating (MOOVA Monochoria [10]; 0.5000 kg/ha): 9.0; herbicidal effect rating (MOOVA Monochoria [11]; 0.1250 kg/ha): 9.0; herbicidal effect rating (MOOVA Monochoria [11]; 0.2500 kg/ha): 9.0; herbicidal effect rating (MOOVA Monochoria [11]; 0.5000 kg/ha): 9.0; herbicidal effect rating ([12]; 0.1250 kg/ha): 6.0; herbicidal effect rating ([12]; 0.2500 kg/ha): 8.0; herbicidal effect rating ([12]; 0.5000 kg/ha): 9.0; herbicidal effect rating (ORYSAT Rice, Tebonnet; 0.1250 kg/ha): 9.0; herbicidal effect rating (ORYSAT Rice, Tebonnet; 0.2500 kg/ha): 9.0; herbicidal effect rating (ORYSAT Rice, Tebonnet; 0.5000 kg/ha): 9.0"
